In PubChem BioAssay (NCI):
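Cells were grown in 96-well plates and exposed to each compound for 48 hours at five concentrations; endpoints were interpolated linearly between bracketing concentrations, or set to the highest concentration if not reached. GI50: concentration for 50% inhibition of growth. The concentration for full growth arrest is given as TGI.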

Tests used:
Assay in all cases: NCI tumour cell line growth inhibition, 48 h
[1] = tested on: 786-0 renal
[2] = tested on: A498 renal
[3] = tested on: A549 NSCLC
[4] = tested on: ACHN renal
[5] = tested on: BT-549 breast
[6] = tested on: CAKI-1 renal
[7] = tested on: COLO 205 colon
[8] = tested on: DU-145 prostate
[9] = tested on: EKVX NSCLC
[10] = tested on: HCC-2998 colon
[11] = tested on: HCT-116 colon
[12] = tested on: HCT-15 colon
[13] = tested on: HL-60(TB) leukemia
[14] = tested on: HOP-62 NSCLC
[15] = tested on: HOP-92 NSCLC
[16] = tested on: HS 578T breast
[17] = tested on: HT29 colon
[18] = tested on: IGROV1 ovarian
[19] = tested on: K-562 leukemia
[20] = tested on: KM12 colon
[21] = tested on: LOX IMVI melanoma
[22] = tested on: M14 melanoma
[23] = tested on: MALME-3M melanoma
[24] = tested on: MCF7 breast
[25] = tested on: MDA-MB-231 breast
[26] = tested on: MDA-MB-435
[27] = tested on: MOLT-4 leukemia
[28] = tested on: NCI-H226 lung
[29] = tested on: NCI-H23 lung
[30] = tested on: NCI-H460 lung
[31] = tested on: NCI-H522 lung
[32] = tested on: NCI/ADR-RES ovarian
[33] = tested on: OVCAR-3 ovarian
[34] = tested on: OVCAR-4 ovarian
[35] = tested on: OVCAR-5 ovarian
[36] = tested on: OVCAR-8 ovarian
[37] = tested on: PC-3 prostate
[38] = tested on: RPMI-8226 leukemia
[39] = tested on: RXF 393 renal
[40] = tested on: SF-268 CNS
[41] = tested on: SF-295 CNS
[42] = tested on: SF-539 CNS
[43] = tested on: SK-MEL-2 melanoma
[44] = tested on: SK-MEL-28 melanoma
[45] = tested on: SK-MEL-5 melanoma
[46] = tested on: SK-OV-3 ovarian
[47] = tested on: SN12C renal
[48] = tested on: SNB-19 CNS
[49] = tested on: SNB-75 CNS
[50] = tested on: SR leukemia
[51] = tested on: SW-620 colon
[52] = tested on: T-47D breast
[53] = tested on: TK-10 renal
[54] = tested on: U251 CNS
[55] = tested on: UACC-257 melanoma
[56] = tested on: UACC-62 melanoma
[57] = tested on: UO-31 renal

COC1CC2CCC(C)C(O)(O2)C(=O)C(=O)N2CCCCC2C(=O)OC(C(C)CC2CCC(O)C(OC)C2)CC(=O)C(C)C=C(C)C(O)C(OC)C(=O)C(C)CC(C)/C=C/C=C/C=C1C (configuration not stated)
GI50 [1]: 5.48 µM | TGI [1]: 17.3 µM | GI50 [2]: < 0.005 µM | TGI [2]: 6.86 µM | GI50 [3]: 0.0784 µM | TGI [3]: 41.6 µM | GI50 [4]: 2.55 µM | TGI [4]: 21.1 µM | GI50 [5]: 0.00609 µM | TGI [5]: 11 µM | GI50 [6]: 2.58 µM | TGI [6]: 47.8 µM | GI50 [7]: 5.64 µM | TGI [7]: 12.9 µM | GI50 [8]: 3.52 µM | TGI [8]: 10.9 µM | GI50 [9]: < 0.005 µM | TGI [9]: 13.7 µM | GI50 [10]: 0.263 µM | TGI [10]: 11.4 µM | GI50 [11]: 4.34 µM | TGI [11]: 11.3 µM | GI50 [12]: 0.0813 µM | TGI [12]: 14.7 µM | GI50 [13]: 10.2 µM | TGI [13]: 23.6 µM | GI50 [14]: 0.159 µM | TGI [14]: 9.96 µM | GI50 [15]: 0.0107 µM | TGI [15]: 7.48 µM | GI50 [16]: 0.00742 µM | TGI [16]: 24.4 µM | TGI [17]: 10.8 µM | GI50 [18]: < 0.005 µM | TGI [18]: 11.8 µM | GI50 [19]: 4.94 µM | TGI [19]: 32.3 µM | GI50 [20]: 3.47 µM | TGI [20]: 11.2 µM | GI50 [21]: 0.015 µM | TGI [21]: 13.1 µM | GI50 [22]: 5.41 µM | TGI [22]: 13.3 µM | GI50 [23]: < 0.005 µM | TGI [23]: 8.36 µM | GI50 [24]: < 0.005 µM | TGI [24]: 14.6 µM | GI50 [25]: 4.32 µM | TGI [25]: 12.9 µM | GI50 [26]: 0.838 µM | TGI [26]: 14.9 µM | GI50 [27]: 0.0787 µM | TGI [27]: 13.9 µM | GI50 [28]: < 0.005 µM | TGI [28]: 9.71 µM | GI50 [29]: 0.0688 µM | TGI [29]: 15.5 µM | GI50 [30]: < 0.005 µM | TGI [30]: 11.5 µM | GI50 [31]: 1.99 µM | TGI [31]: 11.3 µM | GI50 [32]: 1.86 µM | TGI [32]: 30.3 µM | GI50 [33]: 4.49 µM | TGI [33]: 10.9 µM | GI50 [34]: < 0.005 µM | TGI [34]: 10.5 µM | GI50 [35]: 6.41 µM | TGI [35]: 14.3 µM | GI50 [36]: < 0.005 µM | TGI [36]: 24.6 µM | GI50 [37]: < 0.005 µM | TGI [37]: 13 µM | GI50 [38]: 0.0903 µM | TGI [38]: 19.3 µM | GI50 [39]: < 0.005 µM | TGI [39]: 7.48 µM | GI50 [40]: 3.82 µM | TGI [40]: 11.5 µM | GI50 [41]: < 0.005 µM | TGI [41]: 7.76 µM | GI50 [42]: < 0.005 µM | TGI [42]: 11 µM | GI50 [43]: 5.19 µM | TGI [43]: 12.3 µM | GI50 [44]: 3.23 µM | TGI [44]: 11.2 µM | TGI [45]: 9.24 µM | GI50 [46]: < 0.005 µM | TGI [46]: 10.7 µM | GI50 [47]: 5.24 µM | TGI [47]: 14.6 µM | GI50 [48]: 1.45 µM | TGI [48]: 17 µM | GI50 [49]: < 0.005 µM | TGI [49]: 7.93 µM | GI50 [50]: < 0.005 µM | TGI [50]: 15.2 µM | GI50 [51]: 5.39 µM | TGI [51]: 14 µM | GI50 [52]: < 0.005 µM | TGI [52]: 20.9 µM | GI50 [53]: 5.62 µM | TGI [53]: 19.7 µM | GI50 [54]: 0.0523 µM | TGI [54]: 10 µM | GI50 [55]: 4.46 µM | TGI [55]: 12.5 µM | GI50 [56]: 0.0265 µM | TGI [56]: 11.6 µM | GI50 [57]: < 0.005 µM | TGI [57]: 8.08 µM
